For experiment [1], the target named is T1, human skin fibroblast collagenase (Homo sapiens, UniProt P03956).
T1 construct: endogenous in cells; host or cells: human skin fibroblasts
T1 sequence (P03956 100-469): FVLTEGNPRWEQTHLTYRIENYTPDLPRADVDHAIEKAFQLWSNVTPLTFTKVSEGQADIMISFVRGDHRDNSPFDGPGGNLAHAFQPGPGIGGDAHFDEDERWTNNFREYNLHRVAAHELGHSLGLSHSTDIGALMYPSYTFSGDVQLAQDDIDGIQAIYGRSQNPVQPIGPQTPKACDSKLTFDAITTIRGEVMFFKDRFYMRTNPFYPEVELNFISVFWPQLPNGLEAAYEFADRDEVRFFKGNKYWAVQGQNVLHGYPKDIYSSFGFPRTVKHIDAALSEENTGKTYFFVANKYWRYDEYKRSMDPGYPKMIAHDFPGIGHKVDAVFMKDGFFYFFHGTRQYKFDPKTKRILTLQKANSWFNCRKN
The experiment in a line: inhibition of collagenase, synthetic thiol ester substrate, Ki (Table 1). The format is biochemical.
Procedure: Specifically, assay of inhibition activity can be conducted as follows. Inhibitors may be assayed against crude or purified human skin fibroblast collagenase, or purified human gingival fibroblast collagenase using the synthetic thiol ester substrate at pH 6.5 exactly as described by Kortylewicz & Galardy, J Med Chem (1990) 33:263-273, at a collagenase concentration of 1-2 nM. The candidate inhibitors are tested for their ability to inhibit crude collagenase and gelatinase from human skin fibroblasts, crude collagenase and gelatinase from purulent human neutrophils in this assay.

Experiment [2] has as its target T2, Human gingival fibrblast collagenase (Homo sapiens, UniProt P03956).
T2 construct: endogenous in cells; host or cells: human gingival fibroblasts
T2 sequence (P03956 100-469): T1 sequence (P03956 100-469)
The experiment can be described thus: inhibition of human gingival fibroblast collagenase (Table 2). In kind it is biochemical. The settings on record: read-out: HGFC inhibitory activity.
Procedure: (§1) Specifically, assay of inhibition activity can be conducted as follows. […] Assays for inhibition of human stromelysin are conducted as described by Teahan, J., et al., Biochemistry (1989) 20:8497-8501.
(§2) Assay of inhibition activity can be conducted using a fluorogenic substrate developed by Knight et al., FEBS Letters (1992) 296:263. This method uses a fluorometer to determine the rate of substrate hydrolysis in a 96 well plate format. Reaction rates are determined at several substrate concentrations, and multiple inhibitor levels. The data are analyzed by Lineweaver-Burk, Dixon and Henderson plot analyses (Enzyme Kinetics (1975) Irwin Segal (John Wiley & Sons, Inc., publishers), and as described by Henderson, Biochem J. (1972) 127:321). The substrate levels range from 10-30μM. […] Inhibitors may be assayed against purified 72 kD gelatinase, 92 kD gelatinase, neutrophil collagenase, stromelysin or other proteases as appropriate. The enzymes are activated at 37° C. with APMA (4-aminophenylmercuric acetate), and the assays are carried out at room temperature.

The test system of experiment [3] is protease activity of chronic wound fluid. The experiment in a line: Azocoll assay of protease activity in chronic wound fluid. The format is biochemical, human. The settings on record: FIG. 7; for inhibition of protease activity of chronic wound fluid: highest concentration (800 μg/ml). As for the experimental part: Fluids were collected from 3 types of human wounds termed closed spontaneously healing wounds, open slowly healing wounds, and open chronic wounds. In the first category were fluids collected from the chest wall of women following mastectomy surgery. Fluids from non-infected wounds that were left open for valid surgical reasons were considered open slowly healing wounds. An occlusive dressing was placed over the wound bed, and fluids were collected after 2-6 hours of occlusion. Finally, fluids were also collected from chronic open wounds by covering the wounds with occlusive dressings. Wounds were considered to be chronic if they were not clinically infected and had been open and not healing for more than 4 weeks.
The various wound fluids were assayed for matrix metalloproteinase activity using the Azocoll assay essentially as described by Chavira, et al., Analytic Biochemistry (1984), 136:446.
The fluids were centrifuged, and the supernatants filtered using a 0.45μ sterile Gelman filter. The filtrates were stored frozen at -80° C. until tested for protease activity.
The effects of four inhibitors on the protease activity present in wound fluids were determined. The inhibitors were: compounds
Stock solutions of the four inhibitors were all prepared at a concentration of 800 μg/ml. Due to different solubility properties of the inhibitors, different techniques were utilized. […] S1209 was dissolved in 1% DMSO then dissolved in 10 mM citrate, pH 5.5, containing 0.05% methyl cellulose. 39A was dissolved in propylene glycol (to give a final concentration of 2.4%) then dissolved in 1 mM CaCl2, 50 mM Tris-Cl, pH 7.8. 21A was dissolved in propylene glycol (2.4%) methyl cellulose (0.05%) and 10 mM citrate, pH 8.
The protease substrate, Azocoll, was obtained from Sigma Chemical Corporation and it is a substrate for collagenase/gelatinase-like metalloproteinase enzymes and general proteases. Clostridium histolyticum collagenase (the crude form of the enzyme) was from Worthington Biochemicals. General chemicals including TRIS buffer, DMSO, and CaCl2 were from Sigma Chemical Corporation.
Briefly, 900 μl of the Azocoll substrate suspension in buffer ([…] in 50 mM TRIS, pH 7.8, 1 mM CaCl2) was added to 1.5 ml microcentrifuge tubes then 50 μl of inhibitor (or buffer) and 50 μl of chronic wound fluid (or collagenase standard) were added to the reaction tube. The reaction tubes were placed at 37° C. in a shaker that inverted the tubes 30 times per minute. After 24 hours of incubation, the reaction tubes were centrifuges at 10,000 X g and the absorbance of the supernatant solution was measured at 520 nm with a Milton-Roy spectrophotometer. Proteolysis of Azocoll substrate generates soluble colored fragments from the insoluble Azocoll substrate. Wound fluid samples were incubated alone or with the inhibitors. Controls included incubation of the Azocoll substrate with the assay buffer to measure spontaneous degradation of the substrate. A standard curve for digestion of the Azocoll substrate was generated by incubation of the Azocoll with crude bacterial collagenase. Protease levels were expressed as net μg of collagenase equivalent per ml of chronic wound fluid. In the figures, certain of the wound fluids are referred to by an individual name.
For these experiments, due to the different solubility properties of the inhibitors, different techniques were utilized. […] S1209 was dissolved in 1% DMSO then dissolved in 10 mM citrate, pH 5.5, containing 0.05% methyl cellulose. 39A was dissolved in propylene glycol (to give a final concentration of 2.4%) then dissolved in 1 mM CaCl2, […] Tris-Cl, pH 7.8. 21A was dissolved in propylene glycol (2.4%) methyl cellulose (0.05%) and 10 mM citrate, pH 8.

The target in experiment [4] is Stromelysin (Homo sapiens, UniProt P08254). The experiment can be described thus: inhibition of stromelysin (Table 2). In kind it is biochemical. The settings on record: read-out: Strom inhibitory activity.
Sequence of Stromelysin (P08254 100-477): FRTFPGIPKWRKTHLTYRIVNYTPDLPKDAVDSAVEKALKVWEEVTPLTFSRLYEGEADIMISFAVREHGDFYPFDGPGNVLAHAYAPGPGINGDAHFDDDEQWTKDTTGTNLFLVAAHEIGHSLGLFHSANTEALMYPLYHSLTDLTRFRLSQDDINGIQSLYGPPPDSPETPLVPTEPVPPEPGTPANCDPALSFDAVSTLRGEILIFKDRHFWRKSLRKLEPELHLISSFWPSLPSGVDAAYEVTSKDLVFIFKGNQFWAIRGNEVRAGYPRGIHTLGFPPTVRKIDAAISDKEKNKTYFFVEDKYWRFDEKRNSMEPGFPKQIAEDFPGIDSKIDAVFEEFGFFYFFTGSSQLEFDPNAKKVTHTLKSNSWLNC
Procedure: as §1, §2
For experiment [5], the target named is T3, Natural human 72kD gelatinase (Homo sapiens, UniProt P08253).
T3 sequence (P08253 110-660): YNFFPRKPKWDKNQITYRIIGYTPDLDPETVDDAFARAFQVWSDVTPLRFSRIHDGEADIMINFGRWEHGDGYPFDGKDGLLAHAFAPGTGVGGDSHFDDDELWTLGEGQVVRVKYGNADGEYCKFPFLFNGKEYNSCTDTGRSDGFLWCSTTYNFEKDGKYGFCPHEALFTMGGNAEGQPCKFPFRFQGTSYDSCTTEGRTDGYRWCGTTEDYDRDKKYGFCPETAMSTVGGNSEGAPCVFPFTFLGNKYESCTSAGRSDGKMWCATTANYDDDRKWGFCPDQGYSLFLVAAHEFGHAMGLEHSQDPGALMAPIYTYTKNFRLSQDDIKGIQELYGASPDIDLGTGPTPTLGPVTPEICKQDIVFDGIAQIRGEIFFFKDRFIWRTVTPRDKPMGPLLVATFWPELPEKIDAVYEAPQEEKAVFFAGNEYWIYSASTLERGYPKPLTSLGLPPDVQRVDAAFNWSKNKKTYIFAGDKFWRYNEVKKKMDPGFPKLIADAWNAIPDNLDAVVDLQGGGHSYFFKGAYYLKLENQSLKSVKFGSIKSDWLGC
The experiment in a line: inhibition of 72kD gelatinase (Table 2). In kind it is biochemical. The note with it: read-out: 72kD G inhibitory activity.
Procedure: as §1, §2

Experiment [6] has as its target Recombinant neutrophil collagenase (Homo sapiens, UniProt P22894). The experiment can be described thus: inhibition of recombinant neutrophil collagenase (Table 2). The format is biochemical. The settings on record: read-out: NC inhibitory activity.
Procedure: as §1, §2
Experiment [7] deals with PdiBu-Induced Epidermal Hyperplasia. The experiment in a line: PdiBu-induced epidermal hyperplasia mouse model (psoriasis). In kind it is in vivo, hairless mice. The note with it: topical.
Procedure: The phorbol ester, PdiBu (20 nmol in 20 μl if acetone) was applied to both ears of hairless mice (h/h) (approximately 1 cm^2 each). The test compounds (in total volume of 20 μl) were then applied to the right ear immediately (15 to 30 min) following PdiBu. The left ear of each animal received an equivalent amount (20 μl) of vehicle. Test compounds (and vehicle) were reapplied at 6 and 18 hours following PdiBu. Treatment times were staggered to allow exact time intervals to be obtained. At 30 hours after PdiBu, animals were anesthetized, and ear thickness values were obtained using a microcaliper. The weights of punch biopsies (6mm) were then obtained. Histology was performed on selected samples taken at 30 hours.
Left ear in each animal served as vehicle-treated controls (PdiBu+ETOH). Thus, the controls for this series include: 1) Untreated controls; 2) PdiBu plus vehicle alone (included for each mouse tested); 3) PdiBu plus AHA; 4) PdiBu plus Lidex® as a positive control.

pKi: −log10 of the molar value.

Sequence of Recombinant neutrophil collagenase (P22894 101-467): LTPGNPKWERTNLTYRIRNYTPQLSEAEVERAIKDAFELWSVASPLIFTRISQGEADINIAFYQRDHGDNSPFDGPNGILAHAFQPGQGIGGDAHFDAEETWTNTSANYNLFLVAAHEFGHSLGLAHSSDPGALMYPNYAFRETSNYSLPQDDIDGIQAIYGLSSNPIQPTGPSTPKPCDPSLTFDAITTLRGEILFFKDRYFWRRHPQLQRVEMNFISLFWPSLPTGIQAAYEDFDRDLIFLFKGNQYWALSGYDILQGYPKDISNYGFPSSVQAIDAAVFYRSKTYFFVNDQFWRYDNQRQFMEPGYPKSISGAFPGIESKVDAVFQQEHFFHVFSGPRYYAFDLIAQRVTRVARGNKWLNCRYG

In experiment [1], `CNC(=O)[C@H](Cc1c[nH]c2ccccc12)NC(=O)C1CCCCC1C(=O)NO` (mixture of isomers) [29A,B, N-[(±)cis-2-(N'-hydroxyamidocarbonyl)-cyclohexylcarbonyl]-L-tryptophan methylamide] showed a pKi of less than 5.00.

As to `CNC(=O)[C@H](Cc1c[nH]c2ccccc12)NC(=O)[C@@H]1CCCC[C@@H]1C(=O)O` (mixture of isomers) [Compound 35, N-[(+)cis-2-carboxy-cyclohexylcarbonyl]-L-tryptophan methylamide], the pKi in experiment [1] was less than 5.00.

Compound `CNC(=O)[C@H](Cc1c[nH]c2ccccc12)NC(=O)[C@@H]1CCCC[C@H]1C(=O)O` (mixture of isomers) [Compound 36, N-[(+)trans-2-carboxy-cyclohexylcarbonyl]-L-tryptophan methylamide] had a pKi in experiment [1] of less than 5.00.

In the case of `CNC(=O)[C@H](Cc1ccc2ccccc2c1)NC(=O)C(CC(=O)NO)CC(C)C` (single isomer, unassigned) [Compound 11A, N-[2-isobutyl-3-(N-hydroxyamidocarbonyl)-propanoyl]-L-3-(2-naphthyl)-alanine methylamide], the pKi in experiment [1] is 7.82; in experiment [2], 9.52.

With `CC(C)CC(CC(=O)NO)C(=O)N[C@@H](Cc1c[nH]c2ccccc12)C(=O)NCCO` (single isomer, unassigned) [Compound 13A, N-[2-isobutyl-3-(N'-hydroxyamidocarbonyl)-propanoyl]-L-tryptophan 2-hydroxyethylamide], the pKi in experiment [1] was 7.70; in experiment [2], 9.00.

As to `COC(=O)CC(CC(C)C)C(=O)N[C@@H](Cc1c[nH]c2ccccc12)C(=O)N[C@@H](C)c1ccccc1` (single isomer, unassigned) [Compound 20A], the pKi in experiment [2] was 9.70.

In experiment [1], `CC(C)CC(CC(=O)NO)C(=O)N[C@@H](Cc1c[nH]c2ccccc12)C(=O)N[C@@H](C)c1ccccc1` (single isomer, unassigned) [Compound 21A] had a pKi of 8.52. Further, the “inhibition of protease activity of chronic wound fluid” value in experiment [3] was 94%.

Take `CC(C)CC(CC(=O)O)C(=O)N[C@@H](Cc1c[nH]c2ccccc12)C(=O)NCC(=O)O` (single isomer, unassigned) [Compound 34A, N-[N-(2-Isobutyl-3-carboxypropanoyl)-L-tryptophanyl]glycine]: the pKi in experiment [1] is less than 5.00.

Turning to `CC(C)CC(CC(=O)O)C(=O)N[C@@H](Cc1c[nH]c2ccccc12)C(=O)NCC(=O)O` (single isomer, unassigned) [Compound 34B, N-[N-(2-Isobutyl-3-carboxypropanoyl)-L-tryptophanyl]glycine], the pKi in experiment [1] was less than 5.00.

`CC(C)CC(CC(=O)NO)C(=O)N[C@@H](Cc1c[nH]c2ccccc12)C(=O)N1CCCCC1` (stereo partly drawn) [17A,B, N-[2-isobutyl-3-(N'-hydroxyamidocarbonyl)-propanoyl]-L-tryptophan piperidinamide] gave a pKi in experiment [1] of 6.70.

Take `CNC(=O)[C@H](Cc1c[nH]c2ccccc12)NC(=O)[C@H](CC(=O)NO)CC(C)C` [Compound 5B, N-[D,L-2-isobutyl-3-(N'-hydroxycarbonylamido)-propanoyl]-tryptophan methylamide]: in experiment [4], the pKi was less than 6.00.

As to `CCCCCNC(=O)[C@H](Cc1c[nH]c2ccccc12)NC(=O)C(CC(=O)NO)CC(C)C` (stereo partly drawn) [Compound 15A, N-[2-isobutyl-3-(N'-hydroxyamidocarbonyl)-propanoyl]-L-tryptophan amylamide], the results for the pKi in experiment [1] and in experiment [2] were 7.52 and 9.52, respectively.

`CC(C)CC(CC(=O)NO)C(=O)N[C@@H](Cc1c[nH]c2ccccc12)C(=O)O` (stereo partly drawn) [Compound 31A, N-[2-Isobutyl-3-(N'-hydroxyamidocarbonyl)-propanoyl]-L-tryptophan] had a pKi in experiment [1] of 6.70.

As for `CC(C)CC(CC(=O)O)C(=O)N[C@@H](Cc1c[nH]c2ccccc12)C(=O)NCCCCCCN` (stereo partly drawn) [Compound 32A, N-(D,L-2-Isobutyl-3-carboxypropanoyl)-L-tryptophan (6-aminohexyl-1)amide], in experiment [1], the pKi is less than 5.00.

For the compound `CC(C)C[C@H](CC(=O)O)C(=O)N[C@@H](Cc1c[nH]c2ccccc12)C(=O)N[C@@H](C)c1ccccc1` [Compound 39A, N-(2R-2-Carboxymethyl-4-methylpentanoyl)-L-tryptophan (S)-methylbenzyl amide], in experiment [3], the “effect on proteolytic degradation of Azocoll by chronic wound fluid” value is given as “significantly less potent that 5A, 21A, or S1209” and the “inhibition of protease activity of chronic wound fluid” value was 23%. In experiment [3] (0.8 μg/ml), the “increase in protease activity of chronic wound fluid” value came out at 30%. Also, in experiment [3] (8 μg/ml), the “increase in protease activity of chronic wound fluid” value came out at 13%.

Consider `CC(C)C[C@H](CC(=O)O)C(=O)N[C@@H](Cc1c[nH]c2ccccc12)C(=O)NCCN1CCOCC1` [Compound 51], for which, in experiment [2], the pKi was 7.49.

`CC(C)C[C@H](CC(=O)O)C(=O)N[C@@H](Cc1c[nH]c2ccccc12)C(=O)NCCc1ccccc1` [Compound 58, N-[2-Isobutyl-3-hydroxycarbonylpropanoyl]-L-tryptophan-2(phenyl)ethylamide]: the results for the pKi in experiment [5], in experiment [4] and in experiment [6] were 7.10, 4.98 and 7.59, respectively.

Take `CC(C)C[C@H](CC(=O)O)C(=O)N[C@@H](Cc1c[nH]c2ccccc12)C(=O)NCCc1ccc(S(N)(=O)=O)cc1` [Compound 59]: the pKi in experiment [5] is 6.58; in experiment [4], 4.42; in experiment [6], 7.07.

`CC(=O)OCC(=O)[C@@]12OC(C)(C)O[C@@H]1C[C@H]1[C@@H]3C[C@H](F)C4=CC(=O)C=C[C@]4(C)[C@@]3(F)[C@@H](O)C[C@@]12C` [Lidex, fluocinonide, reference compound]: in experiment [7], the “effect on PdiBu-induced ear thickness” value was “significantly inhibited” and the “effect on PdiBu-induced increase in punch biopsy weight” value is reported as “significantly inhibited”.

The values above are taken from patent publication US5773438A, “Synthetic matrix metalloprotease inhibitors and use thereof” (Glycomed Incorporated, priority 1994, dated 1998).
